Laboratory results: patent US9738634B2, “Heterocyclic amide compound and herbicide” (SYNGENTA PARTICIPATIONS AG, priority 2013, dated 2017)

Assays:
Assay type in all cases: in vivo
bulrush [1] = assay: Test Example 2: weedkilling efficacy, growth period weed treatment in the submerged state; B: bulrush
Protocol: (§1) Weedkilling efficacy test on growth period weed treatment in the submerged state
(§2) Alluvial soil was introduced into 1/10,000 Are Wagner pots, and 4 cm depth submerged conditions were created by addition of water and mixing. Seeds of barnyard grass, bulrush and oval-leafed pondweed were mixed and sown into the aforesaid cups, and the plants were grown by placing in a greenhouse at 25 to 30° C. When the barnyard grass, bulrush and oval-leafed pondweed had reached the 1-2 leaf stage, emulsions of compounds of the present invention prepared according to compounding example 2 were diluted with water to give the specified dosages and applied onto the water surface. 3 weeks after the pesticide treatment the effect on each type of plant was investigated on the basis of the assessment criteria of test example 1.
(§3) A: barnyard grass, B: bulrush, C: oval-leafed pondweed, D: crabgrass, E: green foxtail, F: barnyard grass, G: wild oat, H: black-grass, I: Italian ryegrass, J: common wind-grass, K: Indian mallow, L: redroot pigweed, M: fig-leafed goosefoot, N: chickweed, O: catchweed, p: birds-eye speedwell, a: transplanted rice, b: directly sown rice, c: corn, d: soybean, e: wheat, f: beet, g: rapeseed
(§4) Further, pesticide dosage (g/ha) indicates the concentration regulated such that treatment was with only the stated number of grams (g), when calculated per hectare (ha).

oval-leafed pondweed [2] = assay: Test Example 1: weedkilling efficacy, preemergent weed treatment in the submerged state; C: oval-leafed pondweed
From the text: (§5) Weedkilling efficacy test on preemergent weed treatment in the submerged state
(§6) Alluvial soil was introduced into 1/10,000 Are Wagner pots, and 4 cm depth submerged conditions were created by addition of water and mixing. Seeds of barnyard grass, bulrush and oval-leafed pondweed were mixed and sown into the aforesaid cups, then 2.5 leaf stage rice seedlings were transplanted. On the sowing day, emulsions of compounds of the present invention prepared according to compounding example 2 were diluted with water to give the specified dosages and applied onto the water surface. The plants were grown after placing the cups in a greenhouse at 25 to 30° C. 3 weeks after the pesticide treatment the effect on each type of plant was investigated on the basis of the following assessment criteria.
as §3, §4

bulrush [3] = assay: Test Example 1: weedkilling efficacy, preemergent weed treatment in the submerged state; B: bulrush
From the text: as §5, §6, §3, §4

transplanted rice = assay: Test Example 1: preemergent weed treatment in the submerged state, effect on crop; a: transplanted rice
From the text: as §5, §6, §3, §4

oval-leafed pondweed [4] = assay: Test Example 2: weedkilling efficacy, growth period weed treatment in the submerged state; C: oval-leafed pondweed
Protocol: as §1, §2, §3, §4

barnyard grass [5] = assay: Test Example 1: weedkilling efficacy, preemergent weed treatment in the submerged state; A: barnyard grass
From the text: as §5, §6, §3, §4

barnyard grass [6] = assay: Test Example 2: weedkilling efficacy, growth period weed treatment in the submerged state; A: barnyard grass
Protocol: as §1, §2, §3, §4

Row | SMILES | C: oval-leafed pondweed, weed kill grade (oval-leafed pondweed [2]; treatment dosage 252 g/ha) | B: bulrush, weed kill grade (bulrush [3]; treatment dosage 252 g/ha) | a: transplanted rice, effect on crop grade (transplanted rice; treatment dosage 252 g/ha) | A: barnyard grass, weed kill grade (barnyard grass [5]; treatment dosage 252 g/ha) | C: oval-leafed pondweed, weed kill grade (oval-leafed pondweed [2]; treatment dosage 320 g/ha) | B: bulrush, weed kill grade (bulrush [3]; treatment dosage 320 g/ha) | a: transplanted rice, effect on crop grade (transplanted rice; treatment dosage 320 g/ha) | A: barnyard grass, weed kill grade (barnyard grass [5]; treatment dosage 320 g/ha) | further results
1 | CC(C)(C(=O)Nc1cc(C(F)(F)F)ccn1)N1COCN(c2ccccc2)C1=O [A-2-42] | 5 (weed kill ratio 90% or more, (practically complete withering)) | 5 (weed kill ratio 90% or more, (practically complete withering)) | 4 (weed kill ratio 70% or more, less than 90%) | 5 (weed kill ratio 90% or more, (practically complete withering)) |  |  |  |  | B (bulrush) weedkilling efficacy grade (bulrush [1]; treatment dosage 252 g/ha): 5 (weed kill ratio 90% or more, (practically complete withering)); C (oval-leafed pondweed) weedkilling efficacy grade (oval-leafed pondweed [4]; treatment dosage 252 g/ha): 5 (weed kill ratio 90% or more, (practically complete withering)); A (barnyard grass) weedkilling efficacy grade (barnyard grass [6]; treatment dosage 252 g/ha): 5 (weed kill ratio 90% or more, (practically complete withering))
2 | CC1=C(c2ccccc2)C(=O)N(C(C)(C)C(=O)Nc2cc(Oc3ccccc3)cc(Cl)n2)CO1 [B-2-48] |  |  |  |  |  |  |  |  | B (bulrush) weedkilling efficacy grade (bulrush [1]; treatment dosage 266 g/ha): 2 (weed kill ratio 20% or more, less than 40%); C (oval-leafed pondweed) weedkilling efficacy grade (oval-leafed pondweed [2]; treatment dosage 266 g/ha): 4 (weed kill ratio 70% or more, less than 90%); B (bulrush) weedkilling efficacy grade (bulrush [3]; treatment dosage 266 g/ha): 5 (weed kill ratio 90% or more, (practically complete withering)); a (transplanted rice) effect on crop grade (transplanted rice; treatment dosage 266 g/ha): 0 (weed kill ratio 5% or less (practically no effect)); C (oval-leafed pondweed) weedkilling efficacy grade (oval-leafed pondweed [4]; treatment dosage 266 g/ha): 0 (weed kill ratio 5% or less (practically no effect)); A (barnyard grass) weedkilling efficacy grade (barnyard grass [5]; treatment dosage 266 g/ha): 5 (weed kill ratio 90% or more, (practically complete withering)); A (barnyard grass) weedkilling efficacy grade (barnyard grass [6]; treatment dosage 266 g/ha): 0 (weed kill ratio 5% or less (practically no effect))
3 | CC(C)(C(=O)Nc1cc(Br)cnc1Cl)N1COCN(c2ccccc2)C1=O [A-3-07] | 4 (weed kill ratio 70% or more, less than 90%) | 5 (weed kill ratio 90% or more, (practically complete withering)) | 0 (weed kill ratio 5% or less (practically no effect)) | 5 (weed kill ratio 90% or more, (practically complete withering)) |  |  |  |  | B (bulrush) weedkilling efficacy grade (bulrush [1]; treatment dosage 252 g/ha): 5 (weed kill ratio 90% or more, (practically complete withering)); C (oval-leafed pondweed) weedkilling efficacy grade (oval-leafed pondweed [4]; treatment dosage 252 g/ha): 1 (weed kill ratio 5% or more, less than 20%); A (barnyard grass) weedkilling efficacy grade (barnyard grass [6]; treatment dosage 252 g/ha): 4 (weed kill ratio 70% or more, less than 90%)
4 | CC(C)(C(=O)Nc1ccnc(Br)c1)N1COCN(c2ccccc2)C1=O [A-4-03] | 5 (weed kill ratio 90% or more, (practically complete withering)) | 5 (weed kill ratio 90% or more, (practically complete withering)) | 1 (weed kill ratio 5% or more, less than 20%) | 5 (weed kill ratio 90% or more, (practically complete withering)) |  |  |  |  | B (bulrush) weedkilling efficacy grade (bulrush [1]; treatment dosage 252 g/ha): 5 (weed kill ratio 90% or more, (practically complete withering)); C (oval-leafed pondweed) weedkilling efficacy grade (oval-leafed pondweed [4]; treatment dosage 252 g/ha): 4 (weed kill ratio 70% or more, less than 90%); A (barnyard grass) weedkilling efficacy grade (barnyard grass [6]; treatment dosage 252 g/ha): 2 (weed kill ratio 20% or more, less than 40%)
5 | CC1=C(c2cncnc2)C(=O)N(C(C)(C)C(=O)Nc2cccc(Cl)n2)CO1 [B-2-22] |  |  |  |  |  |  |  |  | C (oval-leafed pondweed) weedkilling efficacy grade (oval-leafed pondweed [2]; treatment dosage 1000 g/ha): 1 (weed kill ratio 5% or more, less than 20%); B (bulrush) weedkilling efficacy grade (bulrush [3]; treatment dosage 1000 g/ha): 3 (weed kill ratio 40% or more, less than 70%); a (transplanted rice) effect on crop grade (transplanted rice; treatment dosage 1000 g/ha): 0 (weed kill ratio 5% or less (practically no effect)); A (barnyard grass) weedkilling efficacy grade (barnyard grass [5]; treatment dosage 1000 g/ha): 3 (weed kill ratio 40% or more, less than 70%)
6 | CC(C)(C(=O)Nc1nc(Cl)ccc1Cl)N1COCN(c2ccccc2)C1=O [A-2-16] | 2 (weed kill ratio 20% or more, less than 40%) | 5 (weed kill ratio 90% or more, (practically complete withering)) | 0 (weed kill ratio 5% or less (practically no effect)) | 0 (weed kill ratio 5% or less (practically no effect)) |  |  |  |  | 
7 | Cc1ccc(N2COCN(C(C)(C)C(=O)Nc3cc(C(F)(F)F)ccn3)C2=O)cc1 [A-6-09] |  |  |  |  | 4 (weed kill ratio 70% or more, less than 90%) | 5 (weed kill ratio 90% or more, (practically complete withering)) | 0 (weed kill ratio 5% or less (practically no effect)) | 4 (weed kill ratio 70% or more, less than 90%) | B (bulrush) weedkilling efficacy grade (bulrush [1]; treatment dosage 320 g/ha): 3 (weed kill ratio 40% or more, less than 70%); A (barnyard grass) weedkilling efficacy grade (barnyard grass [6]; treatment dosage 320 g/ha): 3 (weed kill ratio 40% or more, less than 70%)
8 | CC1=C(c2ccnc(F)c2)C(=O)N(C(C)(C)C(=O)Nc2cccc(Cl)n2)CO1 [B-2-21] |  |  |  |  |  |  |  |  | C (oval-leafed pondweed) weedkilling efficacy grade (oval-leafed pondweed [2]; treatment dosage 252 g/ha): 3 (weed kill ratio 40% or more, less than 70%); B (bulrush) weedkilling efficacy grade (bulrush [3]; treatment dosage 252 g/ha): 5 (weed kill ratio 90% or more, (practically complete withering)); a (transplanted rice) effect on crop grade (transplanted rice; treatment dosage 252 g/ha): 0 (weed kill ratio 5% or less (practically no effect)); A (barnyard grass) weedkilling efficacy grade (barnyard grass [5]; treatment dosage 252 g/ha): 0 (weed kill ratio 5% or less (practically no effect))
9 | COC(=O)c1ccnc(NC(=O)C(C)(C)N2COCN(c3ccccc3)C2=O)c1 [A-2-47] |  |  |  |  | 0 (weed kill ratio 5% or less (practically no effect)) | 4 (weed kill ratio 70% or more, less than 90%) | 0 (weed kill ratio 5% or less (practically no effect)) | 2 (weed kill ratio 20% or more, less than 40%) | 
10 | COc1ccc(N2COCN(C(C)(C)C(=O)Nc3cc(C(F)(F)F)ccn3)C2=O)cc1Cl [A-6-05] |  |  |  |  | 2 (weed kill ratio 20% or more, less than 40%) | 2 (weed kill ratio 20% or more, less than 40%) | 0 (weed kill ratio 5% or less (practically no effect)) | 2 (weed kill ratio 20% or more, less than 40%) | 
11 | COc1ccnc(NC(=O)C(C)(C)N2COCN(c3ccccc3)C2=O)c1 [A-2-51] | 2 (weed kill ratio 20% or more, less than 40%) | 5 (weed kill ratio 90% or more, (practically complete withering)) | 0 (weed kill ratio 5% or less (practically no effect)) | 4 (weed kill ratio 70% or more, less than 90%) |  |  |  |  | 
12 | Cc1cnc(Cl)c(NC(=O)C(C)(C)N2COCN(c3ccccc3)C2=O)c1 [A-3-09] | 0 (weed kill ratio 5% or less (practically no effect)) | 4 (weed kill ratio 70% or more, less than 90%) | 1 (weed kill ratio 5% or more, less than 20%) | 2 (weed kill ratio 20% or more, less than 40%) |  |  |  |  | 
13 | COc1cc(C(F)(F)F)cc(NC(=O)C(C)(C)N2COCN(c3ccccc3)C2=O)n1 [A-2-59] |  |  |  |  | 5 (weed kill ratio 90% or more, (practically complete withering)) | 5 (weed kill ratio 90% or more, (practically complete withering)) | 1 (weed kill ratio 5% or more, less than 20%) | 5 (weed kill ratio 90% or more, (practically complete withering)) | 
